Measurements as given in publication PMC10641276 (Saudi Pharmaceutical Journal : SPJ, 2023).

target: thymidine phosphorylase (Escherichia coli, UniProt P07650); format: biochemical; conditions: thymidine phosphorylase inhibition versus standard drug (7-deazaxanthine)
Sequence (P07650 whole entry): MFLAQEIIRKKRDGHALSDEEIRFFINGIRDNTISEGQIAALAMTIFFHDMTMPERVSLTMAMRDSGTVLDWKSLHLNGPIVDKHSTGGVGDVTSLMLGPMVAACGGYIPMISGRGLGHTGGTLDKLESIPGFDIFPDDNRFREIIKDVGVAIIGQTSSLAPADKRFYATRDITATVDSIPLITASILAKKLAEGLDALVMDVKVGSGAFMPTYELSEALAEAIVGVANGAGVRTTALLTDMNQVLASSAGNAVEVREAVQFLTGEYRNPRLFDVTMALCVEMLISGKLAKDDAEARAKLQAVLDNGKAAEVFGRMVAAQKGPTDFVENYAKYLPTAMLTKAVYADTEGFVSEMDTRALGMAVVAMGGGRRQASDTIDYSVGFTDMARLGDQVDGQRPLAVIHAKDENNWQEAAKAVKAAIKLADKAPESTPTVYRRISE

Row | SMILES | potency compared with standard drug
1 | C(=N\c1nnc(-c2cccc(-c3nnc(/N=C/c4ccc(-c5ccccc5)cc4)s3)n2)s1)/c1ccc(-c2ccccc2)cc1 [4e, (1E,1'E)-N,N'-(pyridine-2,6-diylbis(1,3,4-thiadiazole-5,2-diyl))bis(1-([1,1'-biphenyl]-4-yl)methanimine)] | less potent than the standard drug
2 | CN(C)c1ccc(/C=N/c2nnc(-c3cccc(-c4nnc(/N=C/c5ccc(N(C)C)cc5)s4)n3)s2)cc1 [4i, 4,4'-((1E,1'E)-((pyridine-2,6-diylbis(1,3,4-thiadiazole-5,2-diyl))bis(azanylylidene))bis(methanylylidene))bis(N,N-dimethylaniline)] | less potent than the standard drug
3 | Cc1ccc(-c2ccc(/C=N/c3nnc(-c4cccc(-c5nnc(/N=C/c6ccc(-c7ccc(C)cc7)cc6)s5)n4)s3)cc2)cc1 [4n, (1E,1'E)-N,N'-(pyridine-2,6-diylbis(1,3,4-thiadiazole-5,2-diyl))bis(1-(4'-methyl-[1,1'-biphenyl]-4-yl)methanimine)] | less potent than the standard drug
